# Measured values: patent publication US9556221B2, “N-acetyl amino acid ESTER derivatives of betulin and preparation method thereof” (Northeast Forestry University, priority 2014, dated 2017)
# Key:
# Type in all cases: cell-based
# [1] = tested on: ovarian cancer cell lines MDAH2774; test: MTT assay, in vitro anti-tumor activity screening, MDAH2774; settings: Homo sapiens, MDAH 2774, MDAH2774 ovarian cancer cell line, read-out: half inhibitory concentration IC50, MDAH2774
# Excerpt: (§1) The present invention also relates to the application of the N-acetyl amino acid ester derivatives of betulin for the preparation of anti-tumor drugs.
# (§2) Human colon tumor cell lines HT29, pancreatic cancer cell lines MPC2 and ovarian cancer cell lines MDAH2774 were selected to determine the half inhibitory concentrations (IC50s) of the N-acetyl amino acid ester derivatives of betulin, betulinic acid and betulin, and the results are shown in Table 2.
# [2] = tested on: pancreatic cancer cell lines MPC2; test: MTT assay, in vitro anti-tumor activity screening, MPC2; settings: Homo sapiens, MPC2 pancreatic cancer cell line, read-out: half inhibitory concentration IC50, MPC2
# Excerpt: as §1, §2
# [3] = tested on: Human colon tumor cell lines HT29; test: MTT assay, in vitro anti-tumor activity screening, HT29; settings: HT-29, HT29 colon tumor cell line, read-out: half inhibitory concentration IC50, HT29
# Excerpt: as §1, §2
Structure (SMILES),IC50 [1],IC50 [2],IC50 [3]
"C=C(C)[C@@H]1CC[C@]2(CO)CC[C@]3(C)[C@H](CC[C@@H]4[C@@]5(C)CC[C@H](O)C(C)(C)[C@@H]5CC[C@]43C)[C@@H]12 [Betulin, Lup-20(29)-ene-3β,28-diol]",> 100 µM,> 100 µM,> 100 µM
"C=C(C)[C@@H]1CC[C@]2(C(=O)O)CC[C@]3(C)[C@H](CC[C@@H]4[C@@]5(C)CC[C@H](O)C(C)(C)[C@@H]5CC[C@]43C)[C@@H]12 [Betulinic acid, reference compound]",39.5 ± 2.19 µM,38.6 ± 2.91 µM,
C=C(C)[C@@H]1CC[C@]2(COC(=O)C(C)NC(C)=O)CC[C@]3(C)C(CC[C@@H]4[C@@]5(C)CC[C@H](O)C(C)(C)[C@@H]5CC[C@]43C)[C@@H]12 (some centres unmarked) [YWZ-002],10.6 ± 0.62 µM,4.24 ± 0.23 µM,6.58 ± 0.24 µM
C=C(C)[C@@H]1CC[C@]2(COC(=O)C(NC(C)=O)C(C)C)CC[C@]3(C)C(CC[C@@H]4[C@@]5(C)CC[C@H](O)C(C)(C)[C@@H]5CC[C@]43C)[C@@H]12 (some centres unmarked) [YWZ-003],10.9 ± 0.76 µM,11.4 ± 0.89 µM,14.1 ± 0.83 µM
C=C(C)[C@@H]1CC[C@]2(COC(=O)C3CCCN3C(C)=O)CC[C@]3(C)C(CC[C@@H]4[C@@]5(C)CC[C@H](O)C(C)(C)[C@@H]5CC[C@]43C)[C@@H]12 (some centres unmarked) [YWZ-004],2.13 ± 0.05 µM,5.32 ± 0.21 µM,8.88 ± 0.62 µM
C=C(C)[C@@H]1CC[C@]2(COC(=O)C(CC(C)C)NC(C)=O)CC[C@]3(C)C(CC[C@@H]4[C@@]5(C)CC[C@H](O)C(C)(C)[C@@H]5CC[C@]43C)[C@@H]12 (some centres unmarked) [YWZ-005],1.38 ± 0.04 µM,19.7 ± 0.83 µM,18.1 ± 1.51 µM
C=C(C)[C@@H]1CC[C@]2(COC(=O)C(NC(C)=O)C(C)CC)CC[C@]3(C)C(CC[C@@H]4[C@@]5(C)CC[C@H](O)C(C)(C)[C@@H]5CC[C@]43C)[C@@H]12 (some centres unmarked) [YWZ-006],7.26 ± 0.1 µM,10.2 ± 0.69 µM,15 ± 1.31 µM
